Test results from PubChem BioAssay AID1963439 (Molecular Pharmacology Branch, DTP, NCI, 2024).

Test system: NCI-H196 complex spheroids with HUVEC/MSC, growth % T/C
Assay: Anticancer human tumor NCI-H196 cell line growth inhibition [Asc];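 also: spheroids exposed to compound for 7 days before measurement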;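 as to viability, T/C: 100% = DMSO vehicle control wells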
Conditions: for IC50: curve of first compound; for viability, T/C: stronger effect = lower value
Experimental: Multicellular complex tumor spheroid response to apoptosis pathway targeting inhibitors Alrizomadlin, Pelcitoclax, and Dasminapant in combination with a variety of drugs and investigational agents in selected tumor cell lines
The MDM2 inhibitor alrizomadlin, the Bcl-2/Bcl-xL inhibitor pelcitoclax, and the IAPs inhibitor dasminapant were evaluated both individually and in combination with standard of care and investigational anticancer small molecules within a complex spheroid model of solid tumors. . Complex spheroids include a stromal component modeled by human endothelial cells (HUVEC) and fibroblasts modeled by human mesenchymal stem cells (MSCs). The concentration ranges selected for each drug and investigational agent were based upon clinically achievable concentrations if the clinical Cmax of the agent was known.
Compounds. The drugs and investigational agents: alrizomadlin (APG-115; NSC831270), pelcitoclax (APG-1252; NSC835773), dasminapant (APG-1387;NSC834197), TAK-243 (NSC785004), copanlisib (NSC809693), olaparib (NSC753686), talazoparib (NSC767125), cobimetinib (NSC 768068), eltanexor (KPT-8602, NSC 794443), abemaciclib (NSC 768073), sotorasib (NSC818433), adagrasib (NSC 831453), MRTX-1133 (NSC 836407), Iadademestat (ORY1001, NSC 806812), and RMC-4630 (NSC839698), were obtained from the NCI Developmental Therapeutics Program Chemical Repository. The FDA-approved anticancer drug set is available from the Developmental Therapeutics Program at https://dtp.cancer.gov/organization/dscb/obtaining/available plates.htm. […] The stock solutions were prepared in dimethyl sulfoxide (DMSO, Sigma-Aldrich, St. Louis, MO, cat. D2650) at 800-fold the tested concentration and stored at -70 degrees C prior to their use. All drugs and investigational agents were tested over a range starting from a high concentration at or near the clinical Cmax and decreasing in half-log increments. If the clinical Cmax for an agent had not been determined, the highest concentration tested was 10 microM.
The patient-derived cancer (PDC) cell lines include five colon adenocarcinomas: 186277-243-T-J2-PDC, 616215-338-R-J1-PDC, 439559-082-T-J2-PDC, 463943-066-T-J2-PDC, and 519858-162-T-J1-PDC; three pancreatic carcinomas: 323965-272-R-J2-PDC, 521955-158-R6-J3-PDC, and 521955-158-R2-J5-PDC; two uterine sarcomas: 327498-152-R-J2-PDC and 993429-296-R-J1-PDC; two rhabdomyosarcomas: 755483-174-R-J1-PDC and 772245-204-R-J1-PDC; two soft tissue sarcomas: 126254-015-R-J1-PDC and 494315-158-R-J1-PDC; two malignant fibrous histiocytomas: 317291-083-R-J1-PDC and 596521-263-R-J1-PDC; two breast carcinomas: 171881-019-R-J1-PDC and 885512-296-R-J2-PDC; and one ovarian carcinoma: 6556581-035-R-J-PDC were obtained from the NCI PDMR, (https://pdmr.cancer.gov). The established cell lines HSSY-2 synovial sarcoma (RRID:CVCL 8719), SYO-1 synovial sarcoma (RRID:CVCL_7146), MPNST malignant peripheral neural sheath tumor were obtained from the Sloan Kettering Institute. The following established cell lines were purchased from the American Type Culture Collection (ATCC, Manassas, VA), Sor the received from the NCI repository:, PANC-1 pancreatic carcinoma (CRL-1469, RRID:CVCL_0480), OVCAR-5 ovarian carcinoma (RRID:CVCL_1628), OVCAR-8 ovarian carcinoma (RRID:CVCL_1629), , MCF-7 breast carcinoma (CRL-12584, RRID:CVCL_0031), MDA-MB-231 breast carcinoma (CRL-12532, RRID:CVCL_0062), NCI-H1876 small cell lung carcinoma (CRL-5902, RRID:CVCL_1503), NCI-H510A small cell lung carcinoma (HTB-184, RRID:CVCL_1565), NCI-H1417 (CRL-5869, RRID:CVCL_1469), and NCI-H196 small cell lung carcinoma (CRL-5823, RRID:CVCL_1509). Dr. Peter Houghton (Greehey Children's Cancer Research Institute, University of Texas Health Science Center, San Antonio, TX) provided Rh-18 rhabdomyosarcoma (RRID:CVCL_1659). Pooled donor human umbilical vein endothelial cells (HUVEC, Lonza, cat. CC-2519) and human mesenchymal stem cells (hMSC, Lonza, cat. PT-2501) were purchased from Lonza (Walkersville, MD).
Cell Culture. […]

[1] = second compound 0.03 µM, first compound 0.0316 µM
[2] = second compound 0.03 µM, first compound 0.1 µM
[3] = second compound 0.0949 µM, first compound 0.0316 µM
[4] = second compound 0.0949 µM, first compound 0.1 µM
[5] = second compound 0.3 µM, first compound 0.0316 µM
[6] = second compound 0.3 µM, first compound 0.1 µM
[7] = second compound 0.949 µM, first compound 0.0316 µM
[8] = second compound 0.949 µM, first compound 0.1 µM
[9] = second compound 3 µM, first compound 0.0316 µM
[10] = second compound 3 µM, first compound 0.1 µM

`Cn1ncnc1[C@H]1c2n[nH]c(=O)c3cc(F)cc(c23)N[C@@H]1c1ccc(F)cc1` + CCN1C(C(=O)NC23CCC(C(=O)O)(CC2)CC3)C(c2cccc(Cl)c2F)C2(C(=O)Nc3cc(Cl)ccc32)C12CCCCC2 was tested, and the IC50 (second compound 0.03 µM) was > 0.1 µM, the IC50 (second compound 0.0949 µM) was > 0.1 µM and the IC50 (second compound 0.3 µM) was > 0.1 µM. For the same compound, the IC50 (second compound 0.949 µM) was > 0.1 µM, the IC50 (second compound 3 µM) was > 0.1 µM and the viability, T/C (second compound 0.03 µM, first compound 0.000316 µM) was 107%. It also gave a viability, T/C (second compound 0.03 µM, first compound 0.001 µM) of 109%, a viability, T/C (second compound 0.03 µM, first compound 0.00316 µM) of 107% and a viability, T/C (second compound 0.03 µM, first compound 0.01 µM) of 108%. It also gave a viability, T/C [1] of 107%, a viability, T/C [2] of 104% and a viability, T/C (second compound 0.0949 µM, first compound 0.000316 µM) of 118%. The viability, T/C (second compound 0.0949 µM, first compound 0.001 µM) was 125%, the viability, T/C (second compound 0.0949 µM, first compound 0.00316 µM) was 114% and the viability, T/C (second compound 0.0949 µM, first compound 0.01 µM) was 102%. For the same compound, the viability, T/C [3] was 114%, the viability, T/C [4] was 109% and the viability, T/C (second compound 0.3 µM, first compound 0.000316 µM) was 118%. It also gave a viability, T/C (second compound 0.3 µM, first compound 0.001 µM) of 128%, a viability, T/C (second compound 0.3 µM, first compound 0.00316 µM) of 119% and a viability, T/C (second compound 0.3 µM, first compound 0.01 µM) of 121%. The viability, T/C [5] was 113%, the viability, T/C [6] was 112% and the viability, T/C (second compound 0.949 µM, first compound 0.000316 µM) was 139%. For the same compound, the viability, T/C (second compound 0.949 µM, first compound 0.001 µM) was 138%, the viability, T/C (second compound 0.949 µM, first compound 0.00316 µM) was 120% and the viability, T/C (second compound 0.949 µM, first compound 0.01 µM) was 118%. It also gave a viability, T/C [7] of 112%, a viability, T/C [8] of 126% and a viability, T/C (second compound 3 µM, first compound 0.000316 µM) of 124%. For the same compound, the viability, T/C (second compound 3 µM, first compound 0.001 µM) was 136%, the viability, T/C (second compound 3 µM, first compound 0.00316 µM) was 132% and the viability, T/C (second compound 3 µM, first compound 0.01 µM) was 129%. For the same compound, the viability, T/C [9] was 131% and the viability, T/C [10] was 121%.

For `O=C(c1cc(Cc2n[nH]c(=O)c3ccccc23)ccc1F)N1CCN(C(=O)C2CC2)CC1` + CCN1C(C(=O)NC23CCC(C(=O)O)(CC2)CC3)C(c2cccc(Cl)c2F)C2(C(=O)Nc3cc(Cl)ccc32)C12CCCCC2, the IC50 (second compound 0.03 µM) was > 10 µM, the IC50 (second compound 0.0949 µM) was > 10 µM and the IC50 (second compound 0.3 µM) was > 10 µM. The IC50 (second compound 0.949 µM) was > 10 µM, the IC50 (second compound 3 µM) was > 10 µM and the viability, T/C [1] was 102%. It also gave a viability, T/C [2] of 116%, a viability, T/C (second compound 0.03 µM, first compound 0.316 µM) of 95.9% and a viability, T/C (second compound 0.03 µM, first compound 1 µM) of 100%. The viability, T/C (second compound 0.03 µM, first compound 3.16 µM) was 104%, the viability, T/C (second compound 0.03 µM, first compound 10 µM) was 97.9% and the viability, T/C [3] was 108%. For the same compound, the viability, T/C [4] was 105%, the viability, T/C (second compound 0.0949 µM, first compound 0.316 µM) was 110% and the viability, T/C (second compound 0.0949 µM, first compound 1 µM) was 100%. For the same compound, the viability, T/C (second compound 0.0949 µM, first compound 3.16 µM) was 102%, the viability, T/C (second compound 0.0949 µM, first compound 10 µM) was 104% and the viability, T/C [5] was 106%. The viability, T/C [6] was 107%, the viability, T/C (second compound 0.3 µM, first compound 0.316 µM) was 123% and the viability, T/C (second compound 0.3 µM, first compound 1 µM) was 116%. The viability, T/C (second compound 0.3 µM, first compound 3.16 µM) was 107%, the viability, T/C (second compound 0.3 µM, first compound 10 µM) was 100% and the viability, T/C [7] was 120%. It also gave a viability, T/C [8] of 124%, a viability, T/C (second compound 0.949 µM, first compound 0.316 µM) of 121% and a viability, T/C (second compound 0.949 µM, first compound 1 µM) of 121%. For the same compound, the viability, T/C (second compound 0.949 µM, first compound 3.16 µM) was 121%, the viability, T/C (second compound 0.949 µM, first compound 10 µM) was 105% and the viability, T/C [9] was 116%. It also gave a viability, T/C [10] of 120%, a viability, T/C (second compound 3 µM, first compound 0.316 µM) of 108% and a viability, T/C (second compound 3 µM, first compound 1 µM) of 110%. For the same compound, the viability, T/C (second compound 3 µM, first compound 3.16 µM) was 128% and the viability, T/C (second compound 3 µM, first compound 10 µM) was 110%.
